Where two headings read alike, the source gives them in different places.
How the values were obtained:
HIV [1] = system: HIV; set-up: method as in PMID 25889234; conditions: cited from earlier work
[2] = Plasma pharmacokinetics of ABX464 and ABX464-NGlc in HIV-infected subjects; type: in vivo, human; conditions: for AUC(0-inf) / Cmax / half-life / Tmax: human, plasma, po
Method: (§1) Plasma samples were analyzed for ABX464 and ABX464-NGlc using validated bioanalytical methods by Atlanbio (Saint Nazaire, France) according to good laboratory practices. Pharmacokinetic parameters were calculated by noncompartmental analysis (NCA), using Phoenix WinNonlin software (Pharsight Corporation) running on a personal computer. On day 1, the following PK parameters were generated: Cmax, the time to Cmax (Tmax), lag time (tlag), elimination rate constant (kel), area under the concentration-time curve (AUC) from time zero to time t (AUC0–t), AUC from time zero to infinity (AUC0–∞), apparent clearance (CL/F), and apparent volume of distribution (V/F). On the other days of PK assessment, only Cmax, Tmax, tlag, kel, and AUC0–t were generated. The secondary analysis concerned pharmacodynamic (PD) activity, as expressed by CD4 and CD8 levels and viral load across time. The HIV viral load was analyzed in the prequalified individual local study center laboratories. CD4 and CD8 cell counts were also determined in the local study center laboratories. With respect to the viral load, changes in the log-transformed viral load values between 24 h postdose and predose were calculated on each day, and a comparison between each dose level and pooled placebo data was made. Moreover, the rate of success (defined as a decrease in the viral load value of at least 0.5 log) was evaluated for each treatment (including placebo) and compared between treatments.

[3] = system: HIV replication in macrophages; set-up: method as in PMID 25889234; conditions: in vitro; cited from earlier work
HIV [4] = assay: HIV viral load (HIV-1 RNA copies per milliliter) in treatment-naive HIV-infected patients; type: in vivo
Method: Safety assessments and laboratory tests were carried out according to the schedules described in Table S4 for groups dosed every day, every 3 days, and 3 times a day. Follow-up visits were scheduled for 7 days after the last dose and subsequently once every week in order to assess the elimination of the main ABX464 metabolite and to assess the viral load. Follow-up visits were terminated when the virus load was within 0.5 log of the baseline value or after 3 follow-up visits, whichever came first. Prior to the statistical analyses, AEs were coded using the Medical Dictionary for Regulatory Activities (MedDRA dictionary; last available version) in order to be tabulated by system organ class (SOC) and preferred term (PT). The AEs were analyzed according to the treatment emergence phase from the first study drug administration on day 1 up to 48 h after the last study drug administration. The number and percentage of subjects with at least one TEAE were tabulated by SOC and PT for each group and dose. The number of occurrences of TEAEs was also analyzed in the same way by SOC and PT for each group and dose, by grade of severity for each group and dose, and by level of causality to the study drug for each group and dose.
as §1
No formal sample size determination was done. The aim of the study was to obtain reliable and consistent data and to expose a limited number of subjects to ABX464. To achieve this aim, six subjects per group received ABX464. A mixed model analysis of covariance of the changes in the viral load compared to that at the baseline was conducted on log-transformed values. Baseline parameters and age were covariates, treatment groups were fixed effects, and subjects were random effects.

Question: With `FC(F)(F)Oc1ccc(Nc2ccc3cccc(Cl)c3n2)cc1` [ABX464] as the compound, how does the “Virus replication in two humanized mouse models of HIV infection” value (HIV [1]) read?
Answer: Its value is “substantially reduced virus replication”.

Question: And the “Mice with an undetectable viral load” value (HIV [1]; humanized mice, after 2 to 3 weeks of treatment)?
Answer: The value was 30%.

Question: And the “Virus rebound after termination of therapy” value (HIV [1]; vs cART-treated control animals, over 6 weeks after treatment termination)?
Answer: Its value is “substantially lower virus rebound”.

Question: What about the “Concomitant food effect on relative bioavailability” value ([2]; fed vs fasted) of the same compound?
Answer: Its value is “substantial increase in the relative bioavailability”.

Question: What about the AUC(0-inf) ([2]; 50 mg, HIV-infected, single oral 50mg (fasted), N 7, read-out: AUC0-∞, GM) of the same compound?
Answer: Its AUC(0-inf) is 42.8 ng·h/mL.

Question: And the AUC(0-inf) ([2]; 50 mg, HIV-infected, single oral 50mg (fasted), N 7, read-out: AUC0-∞, Mean)?
Answer: Its AUC(0-inf) is 55.4 ng·h/mL.

Question: And the Cmax ([2]; 50 mg, HIV-infected, single oral 50mg (fasted), N 7, read-out: Cmax, GM)?
Answer: The Cmax was 14.9 ng/mL.

Question: What about the Cmax ([2]; 50 mg, HIV-infected, single oral 50mg (fasted), N 7, read-out: Cmax, Mean) of the same compound?
Answer: The Cmax was 19.4 ng/mL.

Question: What about the half-life ([2]; 50 mg, HIV-infected, single oral 50mg (fasted), N 7, read-out: t1/2, GM (converted)) of the same compound?
Answer: Its half-life is 0.94 h.

Question: And the half-life ([2]; 50 mg, HIV-infected, single oral 50mg (fasted), N 7, read-out: t1/2, Mean (converted))?
Answer: The half-life was 0.96 h.

Question: And the Tmax ([2]; 50 mg, HIV-infected, single oral 50mg (fasted), N 7, read-out: tmax, GM)?
Answer: The Tmax was 1.8 h.

Question: What about the Tmax ([2]; 50 mg, HIV-infected, single oral 50mg (fasted), N 7, read-out: tmax, Mean) of the same compound?
Answer: The Tmax was 1.9 h.

Question: And the half-life ([2]; HIV-infected subjects, oral, read-out: half-life (t1/2) (converted))?
Answer: The half-life was about 1 h.

Question: And the “Inhibition of HIV replication in macrophage culture” value [3]?
Answer: The value was “can inhibit HIV replication”.

Question: What about the “Subjects demonstrating an antiviral response” value (HIV [4]; 75 mg once a day) of the same compound?
Answer: Its value is 16%.

Question: And the “Subjects demonstrating an antiviral response” value (HIV [4]; 100 mg once a day)?
Answer: Its value is 33%.

Question: What about the “Subjects demonstrating an antiviral response” value (HIV [4]; 150 mg once a day) of the same compound?
Answer: Its value is 66%.

Question: And the “Mixed model analysis, RNA viral load Day 2 to Day 14, Treatment Group Estimate” value (HIV [4]; ABX464 150 mg once a day vs. Placebo)?
Answer: Its value is -0.1559.

Question: What about the “Measurements demonstrating a 0.5 log10 decrease over the treatment period” value (HIV [4]; ABX464-treated subjects) of the same compound?
Answer: Its value is 49 measurements.

Question: And the “Change in log10 no. of RNA copies/ml from that at the baseline” value (shortened to “Change in log10 no. of RNA copies/ml”) (HIV [4]; Group 1 (25 mg every 3 days, fasted), subject 102, day 4)?
Answer: The value was −0.99 log10 no. of RNA copies/ml.

Question: And the “Change in log10 no. of RNA copies/ml” value (HIV [4]; Group 1 (25 mg every 3 days, fasted), subject 102, day 5)?
Answer: Its value is −1.47 log10 no. of RNA copies/ml.

Question: And the “Change in log10 no. of RNA copies/ml” value (HIV [4]; Group 1 (25 mg every 3 days, fasted), subject 102, day 7)?
Answer: The value was −1.36 log10 no. of RNA copies/ml.

Question: What about the “Change in log10 no. of RNA copies/ml” value (HIV [4]; Group 1 (25 mg every 3 days, fasted), subject 102, day 8) of the same compound?
Answer: The value was −1.57 log10 no. of RNA copies/ml.

Question: What about the “Change in log10 no. of RNA copies/ml” value (HIV [4]; Group 1 (25 mg every 3 days, fasted), subject 102, day 10) of the same compound?
Answer: Its value is −1.43 log10 no. of RNA copies/ml.

Question: And the “Change in log10 no. of RNA copies/ml” value (HIV [4]; Group 1 (25 mg every 3 days, fasted), subject 102, day 11)?
Answer: The value was −1.61 log10 no. of RNA copies/ml.

Question: And the “Change in log10 no. of RNA copies/ml” value (HIV [4]; Group 1 (25 mg every 3 days, fasted), subject 102, day 13)?
Answer: The value was −1.4 log10 no. of RNA copies/ml.

Question: What about the “Change in log10 no. of RNA copies/ml” value (HIV [4]; Group 1 (25 mg every 3 days, fasted), subject 102, day 14) of the same compound?
Answer: Its value is −1.51 log10 no. of RNA copies/ml.

Question: What about the “Change in log10 no. of RNA copies/ml” value (HIV [4]; Group 1 (25 mg every 3 days, fasted), subject 105, day 14) of the same compound?
Answer: The value was −0.5 log10 no. of RNA copies/ml.

Question: And the “Change in log10 no. of RNA copies/ml” value (HIV [4]; Group 1 (25 mg every 3 days, fasted), subject 105, day 16)?
Answer: The value was −0.52 log10 no. of RNA copies/ml.

Question: And the “Change in log10 no. of RNA copies/ml” value (HIV [4]; Group 1 (25 mg every 3 days, fasted), subject 105, day 17)?
Answer: Its value is −0.65 log10 no. of RNA copies/ml.

Question: And the “Change in log10 no. of RNA copies/ml” value (HIV [4]; Group 1 (25 mg every 3 days, fasted), subject 106, day 5)?
Answer: The value was −0.72 log10 no. of RNA copies/ml.

Question: And the “Change in log10 no. of RNA copies/ml” value (HIV [4]; Group 1 (25 mg every 3 days, fasted), subject 106, day 11)?
Answer: Its value is −0.56 log10 no. of RNA copies/ml.

Question: And the “Change in log10 no. of RNA copies/ml” value (HIV [4]; Group 1 (25 mg every 3 days, fasted), subject 106, day 13)?
Answer: Its value is −0.62 log10 no. of RNA copies/ml.

Question: What about the “Change in log10 no. of RNA copies/ml” value (HIV [4]; Group 1 (25 mg every 3 days, fasted), subject 106, day 16) of the same compound?
Answer: Its value is −0.74 log10 no. of RNA copies/ml.

Question: What about the “Change in log10 no. of RNA copies/ml” value (HIV [4]; Group 1 (25 mg every 3 days, fasted), subject 106, day 17) of the same compound?
Answer: Its value is −0.51 log10 no. of RNA copies/ml.

Question: What about the “Change in log10 no. of RNA copies/ml” value (HIV [4]; Group 1 (25 mg every 3 days, fasted), subject 106, day 19) of the same compound?
Answer: Its value is −0.61 log10 no. of RNA copies/ml.

Question: What about the “Change in log10 no. of RNA copies/ml” value (HIV [4]; Group 2 (25 mg q.d., fasted), subject 201, day 14) of the same compound?
Answer: Its value is −0.54 log10 no. of RNA copies/ml.

Question: What about the “Change in log10 no. of RNA copies/ml” value (HIV [4]; Group 4 (50 mg t.i.d., fed), subject 2007, day 10) of the same compound?
Answer: The value was −0.62 log10 no. of RNA copies/ml.

Question: What about the “Change in log10 no. of RNA copies/ml” value (HIV [4]; Group 4 (50 mg t.i.d., fed), subject 2009, day 10) of the same compound?
Answer: Its value is −0.72 log10 no. of RNA copies/ml.

Question: And the “Change in log10 no. of RNA copies/ml” value (HIV [4]; Group 4 (50 mg t.i.d., fed), subject 2009, day 14)?
Answer: The value was −1.23 log10 no. of RNA copies/ml.

Question: And the “Change in log10 no. of RNA copies/ml” value (HIV [4]; Group 4 (50 mg t.i.d., fed), subject 2009, day 18)?
Answer: Its value is −1.39 log10 no. of RNA copies/ml.

Question: What about the “Change in log10 no. of RNA copies/ml” value (HIV [4]; Group 5 (75 mg q.d., fed), subject 605, day 2) of the same compound?
Answer: The value was −0.71 log10 no. of RNA copies/ml.

Question: What about the “Change in log10 no. of RNA copies/ml” value (HIV [4]; Group 5 (75 mg q.d., fed), subject 605, day 4) of the same compound?
Answer: Its value is −0.77 log10 no. of RNA copies/ml.

Question: What about the “Change in log10 no. of RNA copies/ml” value (HIV [4]; Group 5 (75 mg q.d., fed), subject 605, day 5) of the same compound?
Answer: The value was −0.76 log10 no. of RNA copies/ml.

From PMC5487684, “Safety, Pharmacokinetics, and Antiviral Activity of a Novel HIV Antiviral, ABX464, in Treatment-Naive HIV-Infected Subjects in a Phase 2 Randomized, Controlled Study” (Antimicrobial Agents and Chemotherapy, 2017)
